52 compounds from US12064426B2, “Selective inhibitors of ROCK1 and ROCK2 protein kinases and uses thereof” (GENOSCO Inc., priority 2021, dated 2024) can be followed below.

A word on the IC50: it is the concentration that gives 50% inhibition.

Experiment [1] has as its target T1, Recombinant ROCK1 (amino acids 1-477) (Homo sapiens, UniProt Q13464).
T1 construct: Recombinant ROCK1 (amino acids 1-477); by word order, ROCK1 from Carna Biosciences
Briefly: ROCK inhibition assay, LANCE Ultra TR-FRET kinase assay (ROCK1). The conditions noted are these: 1 μM ATP, 50 nM ULight-CREBtide substrate. It counts as biochemical. An outline of the steps:
(§1)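 Reaction buffer 50 mM HEPES pH 7.5, 10 mM MgCl2, 1 mM EGTA, 2 mM DTT; kinase, ULight-CREBtide (50 nM) and ATP (ROCK1 1 μM, ROCK2 4 μM) react 1 h at room temperature. Phospho-Ser133 detected by europium antibody after 10 mM EDTA stop, TR-FRET ex 320 nm; IC50 calculated.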

In experiment [2] the target is T2, Recombinant ROCK2 (amino acids 5-554) (Homo sapiens, UniProt O75116).
T2 construct: ROCK2 (amino acids 5-554); by word order, ROCK2 from SignalChem
The experiment can be described thus: ROCK inhibition assay, LANCE Ultra TR-FRET kinase assay (ROCK2). The conditions noted are these: 4 μM ATP, 50 nM ULight-CREBtide substrate. It counts as biochemical. An outline of the steps:
as §1
For orientation: Time-resolved FRET reads energy transfer from a long-lived donor to a nearby acceptor.

T2 sequence (O75116 5-554): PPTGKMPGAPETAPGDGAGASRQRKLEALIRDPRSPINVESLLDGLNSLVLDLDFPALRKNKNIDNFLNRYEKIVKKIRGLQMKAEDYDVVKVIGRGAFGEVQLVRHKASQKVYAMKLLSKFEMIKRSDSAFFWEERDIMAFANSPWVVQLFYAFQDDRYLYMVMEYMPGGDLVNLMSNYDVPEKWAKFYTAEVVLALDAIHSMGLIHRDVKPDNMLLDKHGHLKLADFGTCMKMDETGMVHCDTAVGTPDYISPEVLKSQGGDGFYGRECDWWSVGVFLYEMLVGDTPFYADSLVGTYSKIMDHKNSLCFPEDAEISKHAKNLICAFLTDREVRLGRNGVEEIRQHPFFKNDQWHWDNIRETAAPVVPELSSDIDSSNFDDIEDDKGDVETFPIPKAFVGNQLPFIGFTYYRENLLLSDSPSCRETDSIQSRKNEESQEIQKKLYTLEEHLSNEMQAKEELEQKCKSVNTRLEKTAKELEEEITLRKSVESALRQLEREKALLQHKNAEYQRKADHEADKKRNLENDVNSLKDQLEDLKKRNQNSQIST
T1 sequence (Q13464 1-477): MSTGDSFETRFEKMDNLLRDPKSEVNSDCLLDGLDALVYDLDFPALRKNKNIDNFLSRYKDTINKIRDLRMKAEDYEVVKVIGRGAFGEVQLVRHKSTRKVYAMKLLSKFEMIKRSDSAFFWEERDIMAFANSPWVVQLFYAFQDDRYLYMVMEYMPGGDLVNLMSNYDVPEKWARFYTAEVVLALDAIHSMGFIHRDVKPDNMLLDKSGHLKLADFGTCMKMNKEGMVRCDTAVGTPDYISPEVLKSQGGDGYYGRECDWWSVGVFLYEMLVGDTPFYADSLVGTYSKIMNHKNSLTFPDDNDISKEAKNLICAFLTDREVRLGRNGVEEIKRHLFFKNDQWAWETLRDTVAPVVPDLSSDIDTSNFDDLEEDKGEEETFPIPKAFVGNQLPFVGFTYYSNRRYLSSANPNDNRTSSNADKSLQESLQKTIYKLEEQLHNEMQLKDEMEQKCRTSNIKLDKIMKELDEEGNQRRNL

In the case of `CC(=O)Nc1cc(F)cc(Cn2ccc3cc(-c4conc4C)ccc3c2=O)c1` [Compound 351], the IC50 lay within 101 to 500 nM in experiment [1] and 10 to 100 nM in experiment [2].

Regarding `O=C(Nc1cccc(Cn2ccc3cc(-c4c[nH]nc4Cl)ccc3c2=O)c1)C1COC1` [Compound 346], the IC50 in experiment [1] was 101 to 500 nM; in experiment [2], 10 to 100 nM.

Regarding `C[C@H](c1cccc(C(=O)NC2CCOCC2)c1)n1cnc2cc(-c3cn[nH]c3C(F)(F)F)ccc2c1=O` [Compound 449], the IC50 in experiment [1] was 11 to 100 nM; in experiment [2] it was less than 10 nM.

For the compound `CNC(=O)c1cccc(Cn2ccc3cc(-c4cnoc4C)ccc3c2=O)c1` [Compound 301], the IC50 in experiment [1] is greater than 501 nM; in experiment [2], greater than 500 nM.

As for `CNC(=O)c1cccc(Cn2cc(C(C)O)c3cc(-c4c[nH]nc4Cl)ccc3c2=O)c1` (centres unmarked) [Compound 541], the IC50 in experiment [1] was 11 to 100 nM; in experiment [2], less than 10 nM.

Take `CNC(=O)c1cc(F)cc(Cn2ccc3cc(-c4cn[nH]c4Cl)ccc3c2=O)c1` [Compound 293]: the half-inhibitory concentration (IC50) in experiment [1] is 11 to 100 nM; in experiment [2], less than 10 nM.

In the case of `CC(=O)Nc1cccc(Cn2ccc3cc(-c4cn[nH]c4)ccc3c2=O)c1` [Compound 352], the IC50 is 101 to 500 nM in experiment [1] and 10 to 100 nM in experiment [2].

Consider `Cn1nccc1-c1cc2ccn(Cc3cc(F)cc(C(=O)NCCc4cccnc4)c3)c(=O)c2cn1` [Compound 271], for which the IC50 in experiment [1] and in experiment [2] was less than 10 nM throughout.

As for `Cc1nocc1-c1ccc2c(=O)n(Cc3cccc(C(=O)NCC4CCOCC4)c3)cnc2c1` [Compound 416], the IC50 in experiment [1] was 11 to 100 nM; in experiment [2] it was less than 10 nM.

Turning to `CNC(=O)c1cccc(Cn2ccc3cc(-c4ccoc4C)ccc3c2=O)c1` [Compound 303], the values for the IC50 in experiment [1] and in experiment [2] were greater than 501 nM and greater than 500 nM, respectively.

As to `Cc1nocc1-c1ccc2c(=O)n(Cc3cc(F)cc(C(=O)N[C@H]4C[C@@H](O)C4)c3)ccc2c1` [Compound 137], the values for the 50% inhibitory concentration (IC50) in experiment [1] and in experiment [2] were 101 to 500 nM and 10 to 100 nM, respectively.

In the case of `O=C(Nc1cccc(Cn2ccc3cc(-c4c[nH]nc4C(F)F)ccc3c2=O)c1)C1COC1` [Compound 343], the IC50 in experiment [1] was in the range of 101 to 500 nM; in experiment [2], 10 to 100 nM.

`Cc1nocc1-c1ccc2c(=O)n(Cc3cccc(C(=O)N[C@H]4CC[C@@H](O)CC4)c3)ccc2c1` [Compound 74]: the results for the IC50 in experiment [1] and in experiment [2] were 101 to 500 nM and 10 to 100 nM, respectively.

With `CN1CCC(NC(=O)c2cc(F)cc(Cn3ccc4cc(-c5c[nH]nc5C(F)(F)F)ncc4c3=O)c2)CC1` [Compound 259], the IC50 in experiment [1] is 11 to 100 nM; in experiment [2] it was less than 10 nM.

Take `C[C@H](c1cccc(C(=O)NC2COC2)c1)n1cnc2cc(-c3cn[nH]c3Br)ccc2c1=O` [Compound 514]: the IC50 in experiment [1] was 11 to 100 nM; in experiment [2], less than 10 nM.

As to `CNC(=O)c1cc(F)cc(Cn2ccc3cc(-c4cn[nH]c4C)ncc3c2=O)c1` [Compound 248], the IC50 was 11 to 100 nM in experiment [1] and 10 to 100 nM in experiment [2].

Consider `COc1cccc(Cn2cnc3cc(-c4c[nH]nc4C)ccc3c2=O)c1` [Compound 355], for which the figures for the IC50 in experiment [1] and in experiment [2] were 11 to 100 nM and 10 to 100 nM, respectively.

As to `CNC(=O)c1cccc(Cn2ccc3cc(-c4cn[nH]c4C(F)(F)F)cnc3c2=O)c1` [Compound 242], the figures for the IC50 in experiment [1] and in experiment [2] were greater than 501 nM and 100 to 500 nM, respectively.

Regarding `C[C@H](c1cccc(C(=O)NCc2ccncc2)c1)n1cnc2cc(-c3cn[nH]c3C(F)(F)F)ccc2c1=O` [Compound 447], the IC50 in experiment [1] and in experiment [2] was less than 10 nM throughout.

Take `Cn1nccc1-c1ccc2c(=O)n(Cc3cccc(C(=O)N[C@H]4CC[C@H](O)CC4)c3)ccc2c1` [Compound 115]: the IC50 was 101 to 500 nM in experiment [1] and 10 to 100 nM in experiment [2].

As to `CNC(=O)c1cccc(Cn2cc(CCO)c3cc(-c4cn[nH]c4F)ccc3c2=O)c1` [Compound 555], the IC50 is 11 to 100 nM in experiment [1] and less than 10 nM in experiment [2].

As for `Cc1n[nH]cc1-c1ccc2c(=O)n(Cc3cccc(C(=O)Nc4ccc(F)nc4)c3)ccc2c1` [Compound 39], the values for the IC50 in experiment [1] and in experiment [2] were 101 to 500 nM and 10 to 100 nM, respectively.

On to `Cc1nocc1-c1ccc2c(=O)n(Cc3cccc(C(=O)NCC4COC4)c3)ccc2c1` [Compound 71], for which the IC50 is 11 to 100 nM in experiment [1] and less than 10 nM in experiment [2].

With `CNC(=O)c1cc(F)cc([C@@H](C)n2cnc3cc(-c4cn[nH]c4C(F)(F)F)ccc3c2=O)c1` [Compound 454], the IC50 in experiment [1] was 11 to 100 nM; in experiment [2], less than 10 nM.

Regarding `O=C(N[C@H]1CC[C@@H](O)CC1)c1cc(F)cc(Cn2ccc3cc(-c4c[nH]nc4Cl)ncc3c2=O)c1` [Compound 262], the IC50 in experiment [1] and in experiment [2] was less than 10 nM in each case.

As for `CNC(=O)c1cccc(Cn2ccc3cc(-c4cn[nH]c4Br)ccc3c2=O)c1` [Compound 512], the IC50 in experiment [1] was 11 to 100 nM; in experiment [2], less than 10 nM.

Consider `Cc1nocc1-c1ccc2c(=O)n(Cc3cccc(C(=O)N[C@H]4C[C@H](O)C4)c3)ccc2c1` [Compound 73], for which the IC50 is 101 to 500 nM in experiment [1] and 10 to 100 nM in experiment [2].

Take `CNC(=O)c1cccc(Cn2ccc3cc(-c4conc4C)ccc3c2=O)c1F` [Compound 314]: the half-maximal inhibitory concentration (IC50) in experiment [1] is 101 to 500 nM; in experiment [2], 10 to 100 nM.

`COc1cccc(Cn2cnc3cc(-c4c[nH]nc4Cl)ccc3c2=O)c1` [Compound 362]: the IC50 is 11 to 100 nM in experiment [1] and less than 10 nM in experiment [2].

`Cn1nccc1-c1ccc2c(=O)n(Cc3cccc(C(=O)N[C@H]4C[C@@H](O)C4)c3)cnc2c1` [Compound 427]: the concentration for half-maximal inhibition (IC50) was 11 to 100 nM in experiment [1] and less than 10 nM in experiment [2].

On to `CN1CCC(CNC(=O)c2cc(F)cc(Cn3ccc4cc(-c5c[nH]nc5C(F)F)ncc4c3=O)c2)CC1` [Compound 274], for which the half-inhibitory concentration (IC50) in experiment [1] and in experiment [2] was less than 10 nM throughout.

For the compound `CNC(=O)c1cccc(Cn2cnc3cc(-c4cn[nH]c4Cl)ccc3c2=O)c1` [Compound 404], the IC50 in experiment [1] and in experiment [2] was less than 10 nM throughout.

As for `CNC(=O)c1cc(Cl)cc(Cn2ccc3cc(-c4ccnn4C)ccc3c2=O)c1` [Compound 324], the IC50 in experiment [1] is 101 to 500 nM; in experiment [2], 100 to 500 nM.

For `CNC(=O)c1cccc([C@@H](C)n2cnc3cc(-c4cn[nH]c4F)ncc3c2=O)c1` [Compound 570], the IC50 in experiment [1] and in experiment [2] was less than 10 nM throughout.

Take `Nc1cc(-c2ccc3c(=O)n(Cc4cccc(C(=O)Nc5nc6c(s5)CNCC6)c4)ccc3c2)ccn1` [Compound 190]: the IC50 in experiment [1] and in experiment [2] was less than 10 nM throughout.

For the compound `[2H]C([2H])([2H])NC(=O)c1cccc(Cn2ccc3cc(-c4cn[nH]c4F)ccc3c2=O)c1` [Compound 296], the IC50 in experiment [1] was 11 to 100 nM; in experiment [2], less than 10 nM.

Regarding `O=C(Nc1cccc(Cn2ccc3cc(-c4c[nH]nc4C(F)(F)F)ccc3c2=O)c1)C1CCOCC1` [Compound 339], the figures for the IC50 in experiment [1] and in experiment [2] were 101 to 500 nM and 10 to 100 nM, respectively.

In the case of `Cc1nocc1-c1ccc2c(=O)n(Cc3cc(F)cc(C(=O)NC4CCOCC4)c3)ccc2c1` [Compound 148], the IC50 lay in the range of 101 to 500 nM in experiment [1] and 10 to 100 nM in experiment [2].

For the compound `NCc1ccccc1CNC(=O)c1cccc(Cn2ccc3cc(-c4ccnc(N)c4)ccc3c2=O)c1` [Compound 183], the 50% inhibitory concentration (IC50) in experiment [1] was 101 to 500 nM; in experiment [2], 10 to 100 nM.

Take `CC(C)N1CCC(CNC(=O)c2cc(F)cc(Cn3ccc4cc(N5CCOCC5)ccc4c3=O)c2)CC1` [Compound 224]: the IC50 in experiment [1] was 101 to 500 nM; in experiment [2] it was 10 to 100 nM.

Turning to `Cc1nocc1-c1ccc2c(=O)n(Cc3cc(F)cc(C(=O)NCC4CCN(C5COC5)CC4)c3)ccc2c1` [Compound 154], the IC50 is 101 to 500 nM in experiment [1] and less than 10 nM in experiment [2].

As for `CNC(=O)c1cccc(Cn2ccc3cc(-c4cn[nH]c4C(F)F)ccc3c2=O)c1` [Compound 286], the IC50 in experiment [1] is 11 to 100 nM; in experiment [2] it was less than 10 nM.

As to `O=C(NCCN1CCOCC1)c1cccc(Cn2ccc3cc(N4CCOCC4)ccc3c2=O)c1` [Compound 230], the half-maximal inhibitory concentration (IC50) in experiment [1] is 11 to 100 nM; in experiment [2], 10 to 100 nM.

For `O=C(NCC1CCNCC1)c1cccc(Cn2cnc3cc(-c4cn[nH]c4C(F)(F)F)ccc3c2=O)c1` [Compound 381], the half-maximal inhibitory concentration (IC50) in experiment [1] and in experiment [2] was less than 10 nM each time.

As to `COc1cc(F)cc(Cn2cnc3cc(-c4c[nH]nc4Cl)ccc3c2=O)c1` [Compound 361], the IC50 in experiment [1] was 11 to 100 nM; in experiment [2], less than 10 nM.

Consider `Nc1cc(-c2ccc3c(=O)n(Cc4cccc(C(=O)Nc5ccc6c(c5)CNCC6)c4)ccc3c2)ccn1` [Compound 187], for which the IC50 was 11 to 100 nM in experiment [1] and less than 10 nM in experiment [2].

With `Cn1nccc1-c1ccc2c(=O)n(Cc3cccc(C(=O)NCC4CCN(CC(F)F)CC4)c3)ccc2c1` [Compound 170], the figures for the IC50 in experiment [1] and in experiment [2] were 11 to 100 nM and less than 10 nM, respectively.

In the case of `CC(c1cccc(O)c1)n1ccc2cc(-c3c[nH]nc3Cl)ccc2c1=O` (centres unmarked) [Compound 21], the IC50 in experiment [1] is 11 to 100 nM; in experiment [2], less than 10 nM.

Consider `CNC(=O)c1cc(F)cc(Cn2ccc3cc(N4CCOCC4)ccc3c2=O)c1` [Compound 329], for which the IC50 in experiment [1] is 101 to 500 nM; in experiment [2], 10 to 100 nM.

As to `Cc1nocc1-c1ccc2c(=O)n(Cc3cccc(C(=O)NCc4ccccc4)c3)cc(C(C)O)c2c1` (centres unmarked) [Compound 539], the IC50 in experiment [1] was 11 to 100 nM; in experiment [2] it was less than 10 nM.

As for `Cn1nccc1-c1ccc2c(=O)n(Cc3cccc(C(=O)NC4CCN(C5COC5)CC4)c3)ccc2c1` [Compound 109], the IC50 in experiment [1] lay within 101 to 500 nM; in experiment [2], 10 to 100 nM.

`Cc1nocc1-c1ccc2c(=O)n(Cc3cc(F)cc(C(=O)NCC4CCN(C(C)C)CC4)c3)ccc2c1` [Compound 152]: the IC50 lay in the range of 101 to 500 nM in experiment [1] and 10 to 100 nM in experiment [2].
